Literature values in patent US6495562B1, “Naphthamidine urokinase inhibitors” (Abbott Laboratories, priority 2000, dated 2002).

Legend:
tumor metastasis = conditions: Anticancer Res. 1988, 8, 1373-1376
angiogenesis = conditions: J. Cell Biol. 1991, 115[3 Pt 2], 402a

N=C(N)NC(=O)c1nc(Cl)c(N)nc1N [Amiloride]
inhibition of tumor metastasis in vivo (tumor metastasis): inhibit
inhibition of angiogenesis in vitro (angiogenesis): inhibit
